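Briefly, cells in 96-well plates were exposed to five compound concentrations for 48 h, and endpoints were estimated by linear interpolation. GI50 marks 50% less growth.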 The source made the active and inactive calls. Cut-off read from the data, not from the text of the source: active = GI50 up to about 1.1 µM and inactive = higher. Non-standard residues stand in square brackets, D forms with d. Residues, ends and D or L forms follow the SMILES beside them. *: point of attachment. NMeF = CN[CH](Cc1ccccc1)C(=O)O; NMeV = CN[CH](C(=O)O)C(C)C; Boc = CC(C)(C)OC(=O)*
Tests used:
Test in all cases: NCI anticancer screen, dose series, 48 h
786-0 = tested on: 786-0
A549 = tested on: A549
CCRF-CEM = tested on: CCRF-CEM
COLO 205 = tested on: COLO 205
DMS-114 = tested on: DMS-114
DMS-273 = tested on: DMS-273
EKVX = tested on: EKVX
HCC 2998 = tested on: HCC 2998
HCT-116 = tested on: HCT-116
HCT-15 = tested on: HCT-15
HL-60 = tested on: HL-60
HOP-62 = tested on: HOP-62
HT-29 = tested on: HT-29
IGROV-1 = tested on: IGROV-1
K562 = tested on: K562
KM-20L2 = tested on: KM-20L2
KM12 = tested on: KM12
LOX IMVI = tested on: LOX IMVI
LXFL 529 = tested on: LXFL 529
M14 = tested on: M14
M19-MEL = tested on: M19-MEL
MOLT-4 = tested on: MOLT-4
Malme-3M = tested on: Malme-3M
NCI-H226 = tested on: NCI-H226
NCI-H23 = tested on: NCI-H23
NCI-H460 = tested on: NCI-H460
NCI-H522 = tested on: NCI-H522
OVCAR-3 = tested on: OVCAR-3
OVCAR-8 = tested on: OVCAR-8
RPMI-8226 = tested on: RPMI-8226
SF-268 = tested on: SF-268
SF-295 = tested on: SF-295
SF-539 = tested on: SF-539
SK-MEL-28 = tested on: SK-MEL-28
SK-MEL-5 = tested on: SK-MEL-5
SK-OV-3 = tested on: SK-OV-3
SN12C = tested on: SN12C
SNB-19 = tested on: SNB-19
SR = tested on: SR
SW-620 = tested on: SW-620
TK-10 = tested on: TK-10
U-251 = tested on: U-251
UACC-257 = tested on: UACC-257
UACC-62 = tested on: UACC-62
UO-31 = tested on: UO-31
XF498 = tested on: XF498
A498 = tested on: A498
ACHN = tested on: ACHN
BT-549 = tested on: BT-549
CAKI-1 = tested on: CAKI-1
DU-145 = tested on: DU-145
HOP-92 = tested on: HOP-92
Hs-578T = tested on: Hs-578T
MCF7 = tested on: MCF7
MDA-MB-231 = tested on: MDA-MB-231
MDA-MB-435 = tested on: MDA-MB-435
MDA-N = tested on: MDA-N
NCI/ADR-RES = tested on: NCI/ADR-RES
OVCAR-4 = tested on: OVCAR-4
OVCAR-5 = tested on: OVCAR-5
PC-3 = tested on: PC-3
RXF 393 = tested on: RXF 393
SK-MEL-2 = tested on: SK-MEL-2
SNB-75 = tested on: SNB-75
T47D = tested on: T47D

CC(C)C(NC(=O)OC(C)(C)C)C(=O)N(C)C(Cc1ccccc1)C(=O)N(C)C(C(=O)O)C(C)C (stereo not drawn) (Boc-Val-[NMeF]-[NMeV]-OH; configuration not given here)
GI50 (786-0): > 100000 nM (inactive) | GI50 (A549): > 100000 nM (inactive) | GI50 (CCRF-CEM): > 100000 nM (inactive) | GI50 (COLO 205): > 100000 nM (inactive) | GI50 (DMS-114): > 100000 nM (inactive) | GI50 (DMS-273): > 100000 nM (inactive) | GI50 (EKVX): > 100000 nM (inactive) | GI50 (HCC 2998): > 100000 nM (inactive) | GI50 (HCT-116): > 100000 nM (inactive) | GI50 (HCT-15): > 100000 nM | GI50 (HL-60): > 100000 nM (inactive) | GI50 (HOP-62): > 100000 nM (inactive) | GI50 (HT-29): > 100000 nM (inactive) | GI50 (IGROV-1): > 100000 nM (inactive) | GI50 (K562): > 100000 nM (inactive) | GI50 (KM-20L2): > 100000 nM (inactive) | GI50 (KM12): > 100000 nM (inactive) | GI50 (LOX IMVI): > 100000 nM (inactive) | GI50 (LXFL 529): > 100000 nM (inactive) | GI50 (M14): > 100000 nM (inactive) | GI50 (M19-MEL): > 100000 nM (inactive) | GI50 (MOLT-4): > 100000 nM (inactive) | GI50 (Malme-3M): > 100000 nM (inactive) | GI50 (NCI-H226): > 100000 nM (inactive) | GI50 (NCI-H23): > 100000 nM (inactive) | GI50 (NCI-H460): > 100000 nM (inactive) | GI50 (NCI-H522): 71100 nM (inactive) | GI50 (OVCAR-3): > 100000 nM (inactive) | GI50 (OVCAR-8): > 100000 nM (inactive) | GI50 (RPMI-8226): > 100000 nM (inactive) | GI50 (SF-268): 62400 nM (inactive) | GI50 (SF-295): > 100000 nM (inactive) | GI50 (SF-539): > 100000 nM (inactive) | GI50 (SK-MEL-28): > 100000 nM (inactive) | GI50 (SK-MEL-5): > 100000 nM (inactive) | GI50 (SK-OV-3): > 100000 nM (inactive) | GI50 (SN12C): > 100000 nM (inactive) | GI50 (SNB-19): > 100000 nM (inactive) | GI50 (SR): > 100000 nM (inactive) | GI50 (SW-620): > 100000 nM (inactive) | GI50 (TK-10): > 100000 nM (inactive) | GI50 (U-251): > 100000 nM (inactive) | GI50 (UACC-257): > 100000 nM (inactive) | GI50 (UACC-62): > 100000 nM (inactive) | GI50 (UO-31): > 100000 nM (inactive) | GI50 (XF498): > 100000 nM (inactive)

COc1cc(C2c3[nH]c4ccccc4c3[C@@H](Nc3ccc(C#N)cc3)[C@H]3COC(=O)N23)cc(OC)c1O (stereo not given in full)
GI50 (786-0): 90.8 nM (active) | GI50 (A498): 51.6 nM (active) | GI50 (A549): 113 nM (active) | GI50 (ACHN): 155 nM (active) | GI50 (BT-549): 265 nM (active) | GI50 (CAKI-1): 213 nM (active) | GI50 (CCRF-CEM): 54 nM (active) | GI50 (COLO 205): 644 nM (active) | GI50 (DU-145): 252 nM (active) | GI50 (EKVX): 851 nM (active) | GI50 (HCC 2998): 239 nM (active) | GI50 (HCT-116): 233 nM (active) | GI50 (HCT-15): 1070 nM | GI50 (HL-60): 39.9 nM (active) | GI50 (HOP-62): 192 nM (active) | GI50 (HOP-92): 413 nM (active) | GI50 (HT-29): 300 nM (active) | GI50 (Hs-578T): 265 nM (active) | GI50 (IGROV-1): 501 nM (active) | GI50 (K562): 181 nM (active) | GI50 (KM12): 243 nM (active) | GI50 (LOX IMVI): 96.2 nM (active) | GI50 (M14): 344 nM (active) | GI50 (MCF7): 160 nM (active) | GI50 (MDA-MB-231): 372 nM (active) | GI50 (MDA-MB-435): 388 nM (active) | GI50 (MDA-N): 376 nM (active) | GI50 (MOLT-4): 18.8 nM (active) | GI50 (Malme-3M): 279 nM (active) | GI50 (NCI-H226): 190 nM (active) | GI50 (NCI-H23): 238 nM (active) | GI50 (NCI-H460): 28.8 nM (active) | GI50 (NCI-H522): 175 nM (active) | GI50 (NCI/ADR-RES): 9980 nM (inactive) | GI50 (OVCAR-3): 441 nM (active) | GI50 (OVCAR-4): 1840 nM (inactive) | GI50 (OVCAR-5): 316 nM (active) | GI50 (OVCAR-8): 227 nM (active) | GI50 (PC-3): 462 nM (active) | GI50 (RPMI-8226): 144 nM (active) | GI50 (RXF 393): 1160 nM (inactive) | GI50 (SF-268): 208 nM (active) | GI50 (SF-295): 164 nM (active) | GI50 (SF-539): 61.8 nM (active) | GI50 (SK-MEL-28): 395 nM (active) | GI50 (SK-MEL-2): 356 nM (active) | GI50 (SK-MEL-5): 132 nM (active) | GI50 (SK-OV-3): 254 nM (active) | GI50 (SN12C): 186 nM (active) | GI50 (SNB-19): 235 nM (active) | GI50 (SNB-75): 227 nM (active) | GI50 (SR): 11.3 nM (active) | GI50 (SW-620): 122 nM (active) | GI50 (T47D): 345 nM (active) | GI50 (TK-10): 335 nM (active) | GI50 (U-251): 175 nM (active) | GI50 (UACC-257): 548 nM (active) | GI50 (UACC-62): 114 nM (active) | GI50 (UO-31): 802 nM (active)
